# According to patent US9433609B2, “Benzimidazole-imidazole derivatives” (Janssen Sciences Ireland UC, priority 2009, dated 2016):
# Columns and labels:
# [1] = Counterscreen MT4-LTR-Luc; format: cell-based; details: human
# Text: Counterscreen cell lines included a Huh-7 hepatoma cell line containing a human cytomegalovirus major immediate-early promoter-Luc construct (Huh7-CMV-Luc) and an MT4 T-cell line containing a long terminal repeat-Luc reporter (MT4-LTR-Luc).
# [2] = test system: HCV genotype 1b replicon with NS5A R30H; assay: Transient HCV 1b replicon assay, NS5A mutant R30H; format: cell-based; details: Hepatitis C virus, read-out: EC50 R30H
# Text: In a transient set-up, a Huh-7 lunet hepatoma cell line was transiently transfected with an autonomously replicating RNA encoding a bi-cistronic expression construct. This construct comprises a firefly luciferase reporter gene preceding the NS3-NS5B subgenomic region of HCV (genotype 1a H77 or 1b Con1). Translation of the HCV subgenomic region is mediated by an internal ribosome entry site of encephalomyocarditis virus. The construct is furthermore flanked by 5′ and 3′ untranslated regions of HCV (genotype 1a H77 or 1b Con 1, respectively), which allow for replication of the RNA.
# In addition to the wild-type constructs, site-directed mutations were introduced into the transient HCV genotype 1b replicon in the gene encoding for the non-structural protein 5A (NS5A). More precisely, amino acid residues 28, 30, 31 and 93 in NS5A were independently altered.
# Cells were plated in 384 well plates in the presence of test and control compounds, which were added in various concentrations. Following an incubation of two days, replication of the HCV subgenomic replicon RNA was measured by assaying luciferase activity (using standard luciferase assay substrates and reagents and a Perkin Elmer ViewLux™ ultraHTS microplate imager). […] The inhibitory activity of the compound was monitored, enabling a dose-response curve for each test compound. […]
smiles,measurement,setting,value
COC(=O)N[C@H](C(=O)N1CCC[C@H]1c1ncc(-c2ccc(-c3ccc4nc([C@@H]5CCCN5C(=O)[C@@H](NC(=O)OC)C(C)C)[nH]c4c3)cc2)[nH]1)C(C)C [Compound 1],CC50,[1],> 984 nM
same,EC50,[2],0.6 nM
